Results: publication PMC11744668, “2-Cyanopyrimidine-Containing Molecules for N-Terminal Selective Cyclization of Phage-Displayed Peptides” (ACS Chemical Biology, 2025)
Entries after “also recorded” stand apart in the source; their conditions may differ. Starred links: 1 amine or outer side, 2 acyl side, 3 side chain; linkers in the order of their positions; H or OH if unused. Positions of bridges follow the written chain, without caps; N, C: chain ends. Non-standard residues stand in square brackets, D forms with d. Residues, ends and D or L forms follow the SMILES beside them. No end group written: not given here. X1 = O=C([C@@H]1CSC(c2ncc(N[*:1])cn2)=N1)[*:2]; Abu = CC[C@H](N)C(=O)O

Columns and labels:
[1] = target: T1, ZNRF3 extracellular domain (ZNRF3-ECD) (Homo sapiens, UniProt Q9ULT6); test: Biolayer interferometry (BLI) binding to immobilized biotinylated ZNRF3-ECD; conditions: 10 mM HEPES, 150 mM NaCl, 0.01% Tween 20, pH 7.5, 0.8% DMF; for Kd: streptavidin biosensors, 1:1 binding model, mean ± s.d., n = 3
T1 construct: The ZNRF3 ECD was expressed and characterized exactly as previously described; SUMO (N, cleaved yes); made in house; host or cells: E. coli BL21, co-expressing BirA
T1 sequence (Q9ULT6 56-219 limits assumed): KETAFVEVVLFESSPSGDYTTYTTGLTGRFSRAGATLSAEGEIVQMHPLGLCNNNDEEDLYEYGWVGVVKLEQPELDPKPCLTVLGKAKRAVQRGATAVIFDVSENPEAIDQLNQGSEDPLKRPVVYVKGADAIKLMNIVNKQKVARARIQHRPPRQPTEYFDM
Procedure: The ZNRF3 ECD was expressed and characterized exactly as previously described.[38] Plasmid pET28a-SUMO-ZNRF3-Avi was cotransformed into E. coli (BL21) along with a plasmid expressing BirA. The cells were then inoculated into 2× YT containing 50 μg/mL kanamycin and 34 μg/mL chloramphenicol and grown at 37 °C until OD = 0.5. Expression was then induced by the addition of 1 mM IPTG and 50 μM biotin, and then the protein was expressed for 18 h at 16 °C. The cells were then pelleted (3750g, 15 min) and then resuspended in buffer A (50 mM Tris-HCl, 10% glycerol, 150 mM NaCl, and 25 mM imidazole, pH 7.5, 20 mL/liter of expression). The cells were then lysed by sonication (1 s on, 1 s off, 5 min, 60% A, repeated once), and the lysate was clarified by centrifugation (25,000g, 20 min). The supernatant was then incubated with a Ni-NTA column for 45 min at 4 °C. The column was then washed with 5 CV of buffer A before being eluted using 2 CV of buffer B (buffer A + 240 mM imidazole). The elution was then concentrated using an Amicon centrifugal filter before being desalted into buffer A on a HiPrep 26/10 column. The SUMO tag was then cleaved by the addition of 30 μg/mL SUMO protease and incubation for 48 h at 4 °C. The protein was then loaded onto a second Ni-NTA column for 45 min at 4 °C, and the flowthrough was collected and concentrated to 1 mL by centrifugation. Pure protein was then isolated using size exclusion chromatography (HiLoad 16/600, Superdex 75 pg) in buffer C (50 mM Tris-HCl, pH 7.5, 10% (v/v) glycerol, 150 mM NaCl, and 0.5 mM EDTA). Pure protein was stored in storage buffer (50 mM Tris-HCl, pH 7.5, 50% (v/v) glycerol, and 150 mM NaCl) at −80 °C before being used for assays.
Biolayer interferometry (BLI) experiments were performed using streptavidin-coated biosensors (Sartorius Bio) on an Octet R8 biolayer interferometer (Sartorius Bio). All experiments were performed in assay buffer (10 mM HEPES, 150 mM NaCl, and 0.01% Tween 20, pH 7.5). Biotinylated ZNRF3 (28 μg/mL in assay buffer) was loaded onto the sensor to 4 nm of loading over 10 min, and then the sensors were quenched for one min with a 1% BSA solution in assay buffer. Peptides were serially diluted in assay buffer containing 0.8% DMF, and the association and dissociation to ZNRF3 were measured over 3 and 5 min, respectively. Between each experiment, sensors were regenerated using 10 mM glycine, pH 1.5. Binding curves were double-referenced against a protein-only sensor and a parallel unloaded sensor to correct for any nonspecific binding to the sensors. All curves were fit in the Octet Kinetic Analysis program (Sartorius Bio) using a 1:1 protein/ligand binding model.

CA5C-sfGFP = test: Cyclization of CA5C-sfGFP with linkers (LC-ESI-MS); conditions: 100 μM linker, 3 h, 22 °C (RT), PBS pH 7.4, 1 mM TCEP
Procedure: The designed organic linkers were tested for their ability to cyclize a CA5C peptide expressed as an N-terminal fusion to sfGFP (CA5C-sfGFP). Following reduction of the protein with 1 mM TCEP for 30 min, 100 μM compounds were reacted with the reduced CA5C-sfGFP for 3 h in PBS (pH 7.4). Following the reaction, the protein was analyzed via electrospray ionization mass spectrometry (ESI-MS) analysis to determine the desired adduct and any potential side reactions that occurred. […] This is likely due to the electron withdrawing effects of the nitrogen atoms adjacent to the nitrile in the 2-cyanopyrimidine derivatives. […] Following previously established Bayesian deconvolution of the mass spectra,[23] protein masses from each reaction (MW = 28,399 Da) corresponded well with that of the expected cyclic product (MW = 28,399 Da). […] This observed mass matches a TCEP-conjugated product resulting from a previously reported competing phospha-Michael addition of TCEP to the acrylamide moiety.[24] This product has a TCEP-functionalized linker that is nonreactive toward the internal cysteine (Figure 2A,B). Following these initial studies, we then further optimized the cyclization of CA5C-sfGFP using pCAmCP and mCAmCP by varying the reaction time, temperature, and concentration of linkers (Figure 2C).
Purified CA5C-sfGFP was diluted to 500 nM in PBS (pH 7.4) containing 1 mM TCEP and left to incubate for 30 min at 37 °C. Linker (100 μM final concentration) or equivalent amounts of DMSO were then added to the solution, and it reacted at varying times (3 or 16 h) and temperatures (22 or 37 °C). All initial tests for reactivity were performed at 22 °C for 3 h, while linkers pCAmCP and mCAmCP were optimized with the additional conditions. The reaction mixtures were then concentrated and exchanged to ammonium bicarbonate (50 mM, pH 8.0) using an Amicon centrifugal filter (MWCO: 10 kDa). Samples were analyzed using a QExactive Orbitrap LC–MS System (Thermo Fisher) and deconvoluted using UniDec software.[23]

Compound	Kd [1]	reactivity with / cyclization of CA5C-sfGFP (in words) (CA5C-sfGFP)	other results
CC(C)C[C@@H]1NC(=O)[C@H](CCCCN)NC(=O)[C@H](CCC(N)=O)NC(=O)[C@H](CCCNC(=N)N)NC(=O)[C@H](Cc2c[nH]c3ccccc23)NC(=O)[C@H](C)NC(=O)[C@H](CCC(=O)O)NC(=O)[C@H](CC(C)C)NC(=O)[C@@H]2CCCN2C(=O)[C@H](CO)NC(=O)[C@H](CC(C)C)NC(=O)[C@H](Cc2c[nH]cn2)NC(=O)[C@@H](N)CSSC[C@@H](C(N)=O)NC1=O [Peptide Z27S1Disulf] (H-CHLSPLEAWRQKLC-NH2; disulfide 1-14)	3 ± 2 µM		
CC[C@H](C)[C@@H]1NC(=O)[C@H](Cc2ccccc2)NC(=O)[C@H](CCC(N)=O)NC(=O)[C@H](C)NC(=O)[C@H](C)NC(=O)[C@H](CC(N)=O)NC(=O)[C@@H]2CCCN2C(=O)[C@@H](N)CSSC[C@@H](C(N)=O)NC(=O)[C@H](C)NC(=O)[C@H](CCCNC(=N)N)NC(=O)[C@H](CO)NC(=O)[C@H](Cc2ccc(O)cc2)NC(=O)[C@H](CCCNC(=N)N)NC1=O [Peptide Z27S3Disulf] (H-CPNAAQFIRYSRAC-NH2; disulfide 1-14)	4 ± 1 µM		
CC[C@H](C)[C@@H]1NC(=O)[C@H](Cc2ccccc2)NC(=O)[C@H](CCC(N)=O)NC(=O)[C@H](C)NC(=O)[C@H](C)NC(=O)[C@H](CC(N)=O)NC(=O)[C@@H]2CCCN2C(=O)[C@@H]2CSC(=N2)c2ncc(cn2)NC(=O)CSC[C@@H](C(N)=O)NC(=O)[C@H](C)NC(=O)[C@H](CCCNC(=N)N)NC(=O)[C@H](CO)NC(=O)[C@H](Cc2ccc(O)cc2)NC(=O)[C@H](CCCNC(=N)N)NC1=O [Peptide Z27S3] ({CH2CO}-[X1]PNAAQFIRYSRAC-NH2; thioether N-14)	3.5 ± 0.3 µM		
C=CC(=O)Nc1ccnc(C#N)n1 [mAcCP]		did not result in the expected CA5C-sfGFP cyclization	
C=CC(=O)Nc1cnc(C#N)nc1 [pAcCP]		did not result in the expected CA5C-sfGFP cyclization	
C=CC(=O)Nc1cnc(C#N)cn1 [pAcCPy]		essentially no reactivity with the protein	
CHLSPLEAWRQKLC (also: sidechain bridge or staple (positions not given here)) [Peptide Z27S1-mCP, Z27S1 cyclized with mCAmCP]			binding to ZNRF3 (in words) [1]: No significant dose-dependent interactions were observed; also recorded: no significant binding to ZNRF3
[Abu]PNAAQFIRYSRA[Abu] [Peptide Z27S3Abu, Abu derivative of Z27S3]			binding to ZNRF3 (in words) [1]: no binding to ZNRF3
